Reference: PubChem BioAssay (NCI)
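Protocol summary: plate cells (96-well), add compound at 5 concentrations, incubate 48 h, interpolate endpoints linearly. GI50 is the concentration that inhibits growth by half. TGI: concentration producing complete growth inhibition.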

Tests used:
Assay in all cases: inhibition of tumour cell growth, NCI panel, 48 h
[1] = test system: 786-0 renal
[2] = test system: A498 renal
[3] = test system: A549 NSCLC
[4] = test system: ACHN renal
[5] = test system: BT-549 breast
[6] = test system: CAKI-1 renal
[7] = test system: CCRF-CEM leukemia
[8] = test system: COLO 205 colon
[9] = test system: DU-145 prostate
[10] = test system: EKVX NSCLC
[11] = test system: HCC-2998 colon
[12] = test system: HCT-116 colon
[13] = test system: HCT-15 colon
[14] = test system: HL-60(TB) leukemia
[15] = test system: HOP-62 NSCLC
[16] = test system: HOP-92 NSCLC
[17] = test system: HS 578T breast
[18] = test system: HT29 colon
[19] = test system: IGROV1 ovarian
[20] = test system: K-562 leukemia
[21] = test system: KM12 colon
[22] = test system: LOX IMVI melanoma
[23] = test system: M14 melanoma
[24] = test system: MALME-3M melanoma
[25] = test system: MCF7 breast
[26] = test system: MDA-MB-231 breast
[27] = test system: MDA-MB-435
[28] = test system: MDA-MB-468 breast
[29] = test system: MOLT-4 leukemia
[30] = test system: NCI-H226 lung
[31] = test system: NCI-H23 lung
[32] = test system: NCI-H460 lung
[33] = test system: NCI-H522 lung
[34] = test system: NCI/ADR-RES ovarian
[35] = test system: OVCAR-3 ovarian
[36] = test system: OVCAR-4 ovarian
[37] = test system: OVCAR-5 ovarian
[38] = test system: OVCAR-8 ovarian
[39] = test system: PC-3 prostate
[40] = test system: RPMI-8226 leukemia
[41] = test system: RXF 393 renal
[42] = test system: SF-268 CNS
[43] = test system: SF-295 CNS
[44] = test system: SF-539 CNS
[45] = test system: SK-MEL-2 melanoma
[46] = test system: SK-MEL-28 melanoma
[47] = test system: SK-MEL-5 melanoma
[48] = test system: SK-OV-3 ovarian
[49] = test system: SN12C renal
[50] = test system: SNB-19 CNS
[51] = test system: SNB-75 CNS
[52] = test system: SR leukemia
[53] = test system: SW-620 colon
[54] = test system: T-47D breast
[55] = test system: TK-10 renal
[56] = test system: U251 CNS
[57] = test system: UACC-257 melanoma
[58] = test system: UACC-62 melanoma
[59] = test system: UO-31 renal

## CCOc1ccccc1[C@H]1C(C(=O)c2ccc(Cl)cc2)C2(N[C@@H]1c1ccccc1)C(=O)Nc1ccccc12 (stereo partly specified)
[1]
  GI50: 8.94 µM
  TGI: > 39.8 µM
[2]
  GI50: 7.7 µM
  TGI: 20.7 µM
[3]
  GI50: 10.4 µM
  TGI: > 39.8 µM
[4]
  GI50: 10.1 µM
  TGI: > 39.8 µM
[5]
  GI50: 6.89 µM
  TGI: 22.8 µM
[6]
  GI50: 4.08 µM
  TGI: > 39.8 µM
[7]
  GI50: 29.2 µM
  TGI: > 39.8 µM
[8]
  GI50: 6.82 µM
  TGI: 14 µM
[9]
  GI50: 13.1 µM
  TGI: > 39.8 µM
[10]
  GI50: 8.62 µM
  TGI: > 39.8 µM
[11]
  GI50: 7.9 µM
  TGI: 29.8 µM
[12]
  GI50: 6.75 µM
  TGI: > 39.8 µM
[13]
  GI50: 8.87 µM
  TGI: > 39.8 µM
[14]
  GI50: 5.6 µM
  TGI: 32.4 µM
[15]
  GI50: 18.9 µM
  TGI: > 39.8 µM
[16]
  GI50: 6.65 µM
  TGI: 29.3 µM
[17]
  GI50: 6.08 µM
  TGI: 22.9 µM
[18]
  GI50: 7.26 µM
  TGI: 36.1 µM
[19]
  GI50: 8.69 µM
  TGI: > 39.8 µM
[20]
  GI50: 9.06 µM
  TGI: > 39.8 µM
[21]
  GI50: 11.3 µM
  TGI: > 39.8 µM
[22]
  GI50: 2.85 µM
  TGI: 10.3 µM
[23]
  GI50: 7.69 µM
  TGI: > 39.8 µM
[24]
  GI50: 7.4 µM
  TGI: 18.6 µM
[25]
  GI50: 6.78 µM
  TGI: > 39.8 µM
[26]
  GI50: 5.37 µM
  TGI: 34.3 µM
[27]
  GI50: 4.06 µM
  TGI: 16.3 µM
[28]
  GI50: 1.31 µM
  TGI: 8.19 µM
[29]
  GI50: 4.68 µM
  TGI: > 39.8 µM
[30]
  GI50: 5.44 µM
  TGI: 18.5 µM
[31]
  GI50: 7.78 µM
  TGI: > 39.8 µM
[32]
  GI50: 8 µM
  TGI: 21.5 µM
[33]
  GI50: 6.14 µM
  TGI: 22.8 µM
[34]
  GI50: 5.64 µM
  TGI: 16.6 µM
[35]
  GI50: 7.68 µM
  TGI: > 39.8 µM
[36]
  GI50: 14.8 µM
  TGI: > 39.8 µM
[37]
  GI50: 10.1 µM
  TGI: > 39.8 µM
[38]
  GI50: 11.9 µM
  TGI: > 39.8 µM
[39]
  GI50: 2.77 µM
  TGI: > 39.8 µM
[40]
  GI50: 8.82 µM
  TGI: > 39.8 µM
[41]
  GI50: 5.35 µM
  TGI: 19.2 µM
[42]
  GI50: 12.2 µM
  TGI: > 39.8 µM
[43]
  GI50: 7.88 µM
  TGI: > 39.8 µM
[44]
  GI50: 23.3 µM
  TGI: > 39.8 µM
[45]
  GI50: 7.37 µM
  TGI: 17.5 µM
[46]
  GI50: 17.4 µM
  TGI: > 39.8 µM
[47]
  GI50: 6.1 µM
  TGI: 12.2 µM
[48]
  GI50: 22.1 µM
  TGI: > 39.8 µM
[49]
  GI50: 5.56 µM
  TGI: 11.9 µM
[50]
  GI50: 16.6 µM
  TGI: > 39.8 µM
[51]
  GI50: 6.24 µM
  TGI: > 39.8 µM
[52]
  GI50: 9.21 µM
  TGI: > 39.8 µM
[53]
  GI50: 10.1 µM
  TGI: > 39.8 µM
[54]
  GI50: 6.48 µM
  TGI: > 39.8 µM
[55]
  GI50: 15.6 µM
  TGI: > 39.8 µM
[56]
  GI50: 13 µM
  TGI: > 39.8 µM
[57]
  GI50: 8.91 µM
  TGI: > 39.8 µM
[58]
  GI50: 4.65 µM
  TGI: 18.2 µM
[59]
  GI50: 5.82 µM
  TGI: > 39.8 µM

## CN(C)c1ccnc(CNCCSC2(c3ccc(C(F)(F)F)cc3)c3ccccc3C=Cc3ccccc32)c1
[1]
  GI50: 2.49 µM
  TGI: 7.12 µM
[2]
  GI50: 11.9 µM
  TGI: 27.2 µM
[3]
  GI50: 1.35 µM
  TGI: 5.71 µM
[4]
  GI50: 3.21 µM
  TGI: 14.6 µM
[5]
  GI50: 3.19 µM
  TGI: 9.62 µM
[6]
  GI50: 4.37 µM
  TGI: 16.5 µM
[7]
  GI50: 1.06 µM
  TGI: 13.4 µM
[8]
  GI50: 0.927 µM
  TGI: 2.9 µM
[9]
  GI50: 3.12 µM
  TGI: 10.8 µM
[10]
  GI50: 1.77 µM
  TGI: 14.2 µM
[11]
  GI50: 0.91 µM
  TGI: 2.63 µM
[12]
  GI50: 0.611 µM
  TGI: 12.5 µM
[13]
  GI50: 1.12 µM
  TGI: 6.62 µM
[14]
  GI50: 1.2 µM
  TGI: 3.91 µM
[15]
  GI50: 2.69 µM
  TGI: 13.9 µM
[16]
  GI50: 2.17 µM
  TGI: 10.2 µM
[17]
  GI50: 1.57 µM
  TGI: 6.75 µM
[18]
  GI50: 1.79 µM
  TGI: 5.65 µM
[19]
  GI50: 2.58 µM
  TGI: 16 µM
[20]
  GI50: 2.8 µM
  TGI: 14 µM
[21]
  GI50: 1.41 µM
  TGI: 5.33 µM
[22]
  GI50: 2.2 µM
  TGI: 6.16 µM
[23]
  GI50: 0.598 µM
  TGI: 2.69 µM
[24]
  GI50: 2.35 µM
  TGI: 6.51 µM
[25]
  GI50: 0.853 µM
  TGI: 4.19 µM
[26]
  GI50: 1.11 µM
  TGI: 3.36 µM
[27]
  GI50: 0.605 µM
  TGI: 1.34 µM
[28]
  GI50: 0.74 µM
  TGI: 1.99 µM
[29]
  GI50: 1.12 µM
  TGI: 5.41 µM
[30]
  GI50: 5.45 µM
  TGI: 16.3 µM
[31]
  GI50: 2.8 µM
  TGI: 9.31 µM
[32]
  GI50: 1.09 µM
  TGI: 3.86 µM
[33]
  GI50: 0.771 µM
  TGI: 2.49 µM
[34]
  GI50: 2 µM
  TGI: 4.39 µM
[35]
  GI50: 1.73 µM
  TGI: 5.93 µM
[36]
  GI50: 5.33 µM
  TGI: 16.3 µM
[37]
  GI50: 2.74 µM
  TGI: 11.2 µM
[38]
  GI50: 1.18 µM
  TGI: 4.73 µM
[39]
  GI50: 1.49 µM
  TGI: 11.3 µM
[40]
  GI50: 1.03 µM
  TGI: 4.41 µM
[41]
  GI50: 1.97 µM
  TGI: 7.54 µM
[42]
  GI50: 3.67 µM
  TGI: 16.6 µM
[43]
  GI50: 1.6 µM
  TGI: 6.56 µM
[44]
  GI50: 1.12 µM
  TGI: 3.18 µM
[45]
  GI50: 1.2 µM
  TGI: 3.72 µM
[46]
  GI50: 4.34 µM
  TGI: 9.09 µM
[47]
  GI50: 1.96 µM
  TGI: 5.43 µM
[48]
  GI50: 4.38 µM
  TGI: 13.7 µM
[49]
  GI50: 2.16 µM
  TGI: 8.08 µM
[50]
  GI50: 3.53 µM
  TGI: 17.3 µM
[51]
  GI50: 1.76 µM
  TGI: 6.61 µM
[52]
  GI50: 0.723 µM
  TGI: 4.15 µM
[53]
  GI50: 1 µM
  TGI: 4.45 µM
[54]
  GI50: 4.63 µM
  TGI: 15.7 µM
[55]
  GI50: 7.1 µM
  TGI: 21.3 µM
[56]
  GI50: 1.11 µM
  TGI: 4.03 µM
[57]
  GI50: 4.33 µM
  TGI: 11.2 µM
[58]
  GI50: 3.41 µM
  TGI: 8.81 µM
[59]
  GI50: 3.91 µM
  TGI: 16.2 µM
